Test results reported in ChEMBL document CHEMBL5053560, “Nanoparticular Inhibitors of Flavivirus Proteases from Zika, West Nile and Dengue Virus Are Cell-Permeable Antivirals” (ACS Med Chem Lett, 2021).

How the values were obtained:
Zika virus = test: Antiviral activity against Zika virus infected in human Huh-7 cells assessed as inhibition of viral replication at 12.5 uM measured after 48 hrs by Renilla reporter based luciferase assay relative to control; type: functional
West Nile virus = test: Antiviral activity against West Nile virus infected in human Huh-7 cells assessed as inhibition of viral replication at 12.5 uM measured after 48 hrs by plaque assay relative to control; type: functional
Genome polyprotein [1] = target: T1, Genome polyprotein (West Nile virus, UniProt P06935); test: Competitive inhibition of C-terminal His-tagged WNV NSB2 (52 to 96 amino acids)-NS3 (1 to 184 amino acids) protease expressed in Escherichia coli BL21(DE3) using Boc-GRK-AMC as substrate measured by flourescence based plate reader assay
T1 sequence (P06935 1371-1501 limits assumed): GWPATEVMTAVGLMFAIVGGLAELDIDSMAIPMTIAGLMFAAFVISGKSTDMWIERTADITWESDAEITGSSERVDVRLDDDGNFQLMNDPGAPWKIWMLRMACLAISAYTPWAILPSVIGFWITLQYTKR
T1 sequence (P06935 1502-2120 limits assumed): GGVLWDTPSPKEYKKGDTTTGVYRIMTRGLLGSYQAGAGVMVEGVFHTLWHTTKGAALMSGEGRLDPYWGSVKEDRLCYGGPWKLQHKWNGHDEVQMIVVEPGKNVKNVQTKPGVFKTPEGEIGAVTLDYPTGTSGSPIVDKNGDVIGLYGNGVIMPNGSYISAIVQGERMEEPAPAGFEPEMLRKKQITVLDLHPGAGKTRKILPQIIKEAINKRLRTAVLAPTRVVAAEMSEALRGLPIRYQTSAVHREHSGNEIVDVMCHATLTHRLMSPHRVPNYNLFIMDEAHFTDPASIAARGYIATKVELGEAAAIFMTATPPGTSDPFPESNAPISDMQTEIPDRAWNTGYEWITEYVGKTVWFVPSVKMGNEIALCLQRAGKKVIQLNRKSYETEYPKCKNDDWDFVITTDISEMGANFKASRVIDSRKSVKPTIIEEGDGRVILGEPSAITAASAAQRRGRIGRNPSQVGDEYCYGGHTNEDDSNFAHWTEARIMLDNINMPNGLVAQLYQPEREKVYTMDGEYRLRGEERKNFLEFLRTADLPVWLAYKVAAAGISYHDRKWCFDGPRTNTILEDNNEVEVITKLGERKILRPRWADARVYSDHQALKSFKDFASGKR

Genome polyprotein [2] = target: T2, Genome polyprotein (dengue virus type 2, UniProt P29990); test: Inhibition of recombinant N-terminal His-tagged DENV NS2B-NS3 protease expressed in Escherichia coli BL21(DE3) using Boc-GRR-AMC as substrate measured by flourescence based plate reader assay
T2 sequence (P29990 1346-1475 limits assumed): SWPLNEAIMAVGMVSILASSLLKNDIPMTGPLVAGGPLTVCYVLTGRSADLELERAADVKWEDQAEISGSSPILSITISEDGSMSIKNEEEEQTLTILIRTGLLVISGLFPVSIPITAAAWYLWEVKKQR
T2 sequence (P29990 1476-2093 limits assumed): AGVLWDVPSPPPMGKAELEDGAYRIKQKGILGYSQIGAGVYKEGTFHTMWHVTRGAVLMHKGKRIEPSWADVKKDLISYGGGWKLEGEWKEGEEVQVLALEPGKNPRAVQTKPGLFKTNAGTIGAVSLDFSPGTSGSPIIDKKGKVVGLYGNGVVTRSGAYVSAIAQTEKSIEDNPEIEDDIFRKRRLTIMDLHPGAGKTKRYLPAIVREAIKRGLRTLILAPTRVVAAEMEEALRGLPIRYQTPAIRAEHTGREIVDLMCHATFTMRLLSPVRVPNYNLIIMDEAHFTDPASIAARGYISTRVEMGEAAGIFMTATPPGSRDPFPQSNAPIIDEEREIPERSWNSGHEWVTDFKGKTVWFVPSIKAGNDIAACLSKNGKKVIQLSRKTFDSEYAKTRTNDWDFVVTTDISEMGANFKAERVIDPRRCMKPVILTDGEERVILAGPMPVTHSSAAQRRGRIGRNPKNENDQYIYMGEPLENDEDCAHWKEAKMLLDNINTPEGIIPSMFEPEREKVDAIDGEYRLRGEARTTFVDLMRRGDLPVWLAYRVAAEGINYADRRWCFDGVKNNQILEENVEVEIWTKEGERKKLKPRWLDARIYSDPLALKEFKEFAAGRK

Genome polyprotein [3] = target: T2, Genome polyprotein; test: Competitive inhibition of recombinant N-terminal His-tagged DENV NS2B-NS3 protease expressed in Escherichia coli BL21(DE3) using Boc-GRR-AMC as substrate measured by flourescence based plate reader assay
Nonstructural protein 3 [4] = target: T3, Nonstructural protein 3 (Zika virus, UniProt A0A024AXB9); test: Inhibition of C-terminal His-tagged ZIKV NSB2 (52 to 96 amino acids)-NS3 (1 to 184 amino acids) protease expressed in Escherichia coli BL21(DE3) preincubated for 10 mins followed by addition of Boc-GKR-AMC substrate and measured by flourescence based plate reader assay
T3 sequence (A0A024AXB9 whole entry, the tested form may be a part): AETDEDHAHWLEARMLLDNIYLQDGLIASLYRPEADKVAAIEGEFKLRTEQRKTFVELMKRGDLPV

Genome polyprotein [5] = target: T1, Genome polyprotein; test: Inhibition of C-terminal His-tagged WNV NSB2 (52 to 96 amino acids)-NS3 (1 to 184 amino acids) protease expressed in Escherichia coli BL21(DE3) using Boc-GRK-AMC as substrate measured by flourescence based plate reader assay
Nonstructural protein 3 [6] = target: T3, Nonstructural protein 3; test: Competitive inhibition of C-terminal His-tagged ZIKV NSB2 (52 to 96 amino acids)-NS3 (1 to 184 amino acids) protease expressed in Escherichia coli BL21(DE3) preincubated for 10 mins followed by addition of Boc-GKR-AMC substrate and measured by flourescence based plate reader assay

NC(=O)c1ncn([C@@H]2O[C@H](CO)[C@@H](O)[C@H]2O)n1 [RIBAVIRIN]
inhibition at 12.5 µM (Zika virus): 80% | inhibition at 12.5 µM (West Nile virus): 90%

N=C(N)N[C@H]1CC[C@H](CNC(=O)[C@H](CCCCN)NC(=O)[C@H](CCCCN)NC(=O)Cc2ccc(OCCCCS)cc2)CC1
Ki (Genome polyprotein [1]): 343 nM | IC50 (Genome polyprotein [2]): 17100 nM | Ki (Genome polyprotein [3]): 12700 nM | IC50 (Nonstructural protein 3 [4]): 125 nM | IC50 (Genome polyprotein [5]): 460 nM | Ki (Nonstructural protein 3 [6]): 79 nM
